Laboratory results reported in ChEMBL document CHEMBL1127021, “Structure-activity relationship of a series of phenylureas linked to 4-phenylimidazole. Novel potent inhibitors of acyl-CoA:cholesterol O-acyltransferase with antiatherosclerotic activity. 2” (J Med Chem, 1993).

Columns and labels:
O-acyltransferase = O-acyltransferase (Oryctolagus cuniculus, UniProt G1SFD9); assay: Inhibition against acyl coenzyme A:cholesterol acyltransferase derived from rabbit intestine microsomes
Rattus norvegicus [1] = assay: Cholesterol lowering activity in rats after a dose of 1 mg/kg once a day for 2 days; format: functional
Rattus norvegicus [2] = assay: Cholesterol lowering activity in rats after a dose of 4 mg/kg once a day for 2 days; format: functional
[3] = biological target: T1, Acyl-CoA:cholesterol acyltransferase (Oryctolagus cuniculus, UniProt Q95214); assay: Inhibition against acyl coenzyme A:cholesterol acyltransferase derived from rabbit aorta homogenate; format: tissue-based
T1 sequence (Q95214 whole entry): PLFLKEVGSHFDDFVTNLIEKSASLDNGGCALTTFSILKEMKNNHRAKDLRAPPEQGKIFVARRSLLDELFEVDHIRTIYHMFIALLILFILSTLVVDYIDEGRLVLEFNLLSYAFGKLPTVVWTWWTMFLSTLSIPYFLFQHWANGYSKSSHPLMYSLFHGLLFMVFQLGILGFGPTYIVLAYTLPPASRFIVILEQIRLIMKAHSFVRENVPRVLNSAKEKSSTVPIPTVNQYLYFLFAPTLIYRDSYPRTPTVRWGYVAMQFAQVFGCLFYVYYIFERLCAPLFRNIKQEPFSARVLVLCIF

Sequence of O-acyltransferase (G1SFD9 1-524): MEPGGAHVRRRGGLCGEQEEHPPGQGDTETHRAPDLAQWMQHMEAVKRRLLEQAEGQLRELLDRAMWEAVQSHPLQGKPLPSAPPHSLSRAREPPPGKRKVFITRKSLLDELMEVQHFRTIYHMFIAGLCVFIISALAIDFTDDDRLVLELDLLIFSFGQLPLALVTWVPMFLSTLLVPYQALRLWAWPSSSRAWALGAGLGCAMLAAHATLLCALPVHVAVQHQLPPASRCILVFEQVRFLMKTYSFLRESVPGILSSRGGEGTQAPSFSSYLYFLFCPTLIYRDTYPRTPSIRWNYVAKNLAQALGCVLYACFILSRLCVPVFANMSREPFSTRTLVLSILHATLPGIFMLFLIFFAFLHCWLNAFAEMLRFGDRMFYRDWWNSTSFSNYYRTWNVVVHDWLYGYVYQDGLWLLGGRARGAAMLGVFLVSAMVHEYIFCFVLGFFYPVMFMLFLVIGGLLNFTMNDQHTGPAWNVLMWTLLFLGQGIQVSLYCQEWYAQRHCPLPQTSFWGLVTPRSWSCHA

Row | SMILES | IC50 (O-acyltransferase) | Cholesterol reduction (Rattus norvegicus [1]) | Cholesterol reduction (Rattus norvegicus [2]) | IC50 [3]
1 | CCCCCNC(=O)Nc1c(CC)cccc1OCCCn1cnc(-c2ccccc2)c1C | 0.08 µM | -51% | -60% | 0.044 µM
2 | CCCCCNC(=O)Nc1c(C)cccc1OCCCn1cnc(-c2cccc([N+](=O)[O-])c2)c1 | 0.13 µM | -15% | – | 0.29 µM
3 | CCCCCNC(=O)Nc1c(C)cccc1OCCCn1cnc2c1CCc1ccccc1-2 | 0.22 µM | -30% | -56% | 0.22 µM
4 | CCCCCNC(=O)Nc1c(OCCCn2cnc(-c3ccccc3)c2C)cccc1SC | 0.23 µM | – | – | 0.019 µM
5 | CCCCCNC(=O)Nc1c(C)cccc1C[S+]([O-])CCn1cnc(-c2ccccc2)c1C (stereo not drawn) | > 1 µM | – | – | 0.44 µM
6 | CCCCCNC(=O)Nc1c(C)cccc1OCCCn1cnc(-c2ccccc2)c1Cl | – | -41% | – | 0.084 µM
7 | CCCCCNC(=O)Nc1c(CCC)cccc1OCCCn1cnc(-c2ccccc2)c1C | 0.17 µM | -34% | -50% | 0.098 µM
8 | CCCCCNC(=O)Nc1c(C)cccc1OCCCn1cnc(-c2ccccc2)c1COC | 0.48 µM | 18% | -47% | 0.29 µM
9 | CCCCCNC(=O)Nc1c(O)cccc1OCCCn1cnc(-c2ccccc2)c1C | 0.46 µM | – | – | 0.96 µM
10 | CCCCCNC(=O)Nc1c(C)cccc1OCCCn1cnc(-c2cc(OC)c(OC)c(OC)c2)c1 | 0.51 µM | – | – | 0.9 µM
11 | CCCCCNC(=O)Nc1c(C)cccc1OCCCn1cnc(-c2ccccc2)c1 | 0.25 µM | -28% | -52% | 0.31 µM
12 | CCCCCNC(=O)Nc1c(C)cccc1OCCCn1cnc(-c2ccc(Cl)cc2)c1 | 0.12 µM | -43% | -59% | 0.26 µM
13 | Cc1cccc(OCCCn2cnc(-c3ccccc3)c2C)c1NC(=O)NCCC(C)C | 0.14 µM | -59% | -63% | 0.1 µM
14 | CCCCCNC(=O)Nc1c(C)cccc1S(=O)(=O)CCCn1cnc(-c2ccccc2)c1C | 0.6 µM | – | – | 0.73 µM
15 | Cc1cccc(OCCCn2cnc(-c3ccccc3)c2)c1NC(=O)NCC(C)(C)C | 0.32 µM | -46% | – | 0.073 µM
16 | CCCCCNC(=O)Nc1c(OC)cccc1OCCCn1cnc(-c2ccccc2)c1C | 0.09 µM | – | -34% | 0.22 µM
17 | CCCCCNC(=O)Nc1c(C)cccc1CSCCn1cnc(-c2ccccc2)c1C | 0.57 µM | – | -11% | 0.07 µM
18 | CCCCCCNC(=O)Nc1c(C)cccc1OCCCn1cnc(-c2ccccc2)c1C | 0.084 µM | -43% | -46% | 0.068 µM
19 | CCCCCNC(=O)Nc1c(C)cccc1COCCn1cnc(-c2ccccc2)c1C | 0.88 µM | – | 2% | 0.1 µM
20 | CCCCCNC(=O)Nc1c(F)cccc1OCCCn1cnc(-c2ccccc2)c1C | 0.069 µM | – | -30% | 0.071 µM
21 | CCCCCNC(=O)Nc1c(C)cccc1OCCCn1cnc(-c2ccccc2)c1C(=O)OCC | 0.15 µM | – | – | 0.055 µM

Row | SMILES | IC50 (O-acyltransferase) | Cholesterol reduction (Rattus norvegicus [1]) | Cholesterol reduction (Rattus norvegicus [2]) | IC50 [3]
22 | Cc1cccc(OCCCn2cnc(-c3ccccc3)c2)c1NC(=O)NCCC(C)C | 0.23 µM | -41% | – | 0.37 µM
23 | CCCCCNC(=O)Nc1c(C)cccc1OCCCn1cnc(-c2ccc(F)cc2F)c1 | 0.29 µM | -23% | -48% | 0.12 µM
24 | CCCCCNC(=O)Nc1c(C)cccc1OCCCn1cnc(-c2ccccc2)c1CN(C)C | 0.67 µM | – | -10% | 0.31 µM
25 | CCCCCNC(=O)Nc1c(NS(C)(=O)=O)cccc1OCCCn1cnc(-c2ccccc2)c1C | 0.14 µM | – | 3.6% | 0.48 µM
26 | CCCCCNC(=O)Nc1c(C)cccc1OCC(O)Cn1cnc(-c2ccccc2)c1C (stereo not drawn) | 0.16 µM | – | -43% | 0.17 µM
27 | CCCCNC(=O)Nc1c(C)cccc1OCCCn1cnc(-c2ccccc2)c1 | – | -7% | – | 0.31 µM
28 | CCCCCNC(=O)Nc1c(C)cccc1OCCCn1cnc(-c2ccc([N+](=O)[O-])cc2)c1 | 0.07 µM | -31% | -33% | 0.56 µM
29 | CCCCCNC(=O)Nc1c(C)cccc1OCCCn1cnc(-c2ccccc2)c1C(=O)O | > 1 µM | – | – | > 1 µM
30 | CCCCCNC(=O)Nc1c(C)cccc1OCCCn1cnc(-c2c(OC)cc(OC)cc2OC)c1 | > 1 µM | – | – | > 1 µM
31 | CCCCCNC(=O)Nc1c(Cl)cccc1OCCCn1cnc(-c2ccccc2)c1C | 0.073 µM | – | -49% | 0.1 µM
32 | CCCCCNC(=O)Nc1c(C#N)cccc1OCCCn1cnc(-c2ccccc2)c1C | > 1 µM | – | – | 1.9 µM
33 | CCCCCNC(=O)Nc1c(C)cccc1SCCCn1cnc(-c2ccccc2)c1C | 0.077 µM | – | -7% | 0.086 µM
34 | CCCCCNC(=O)Nc1c(C)cccc1C(=O)NCCn1cnc(-c2ccccc2)c1C | 0.097 µM | – | -25% | 0.28 µM
35 | Cc1cccc(OCCCn2cnc(-c3ccccc3)c2C)c1NC(=O)NC1CCCCC1 | 0.1 µM | -42% | -53% | 0.18 µM
36 | CCCCCNC(=O)Nc1c(C)cccc1OCCCn1cnc(-c2ccccc2)c1CC | 0.17 µM | -28% | -49% | 0.079 µM
37 | Cc1cccc(OCCCn2cnc(-c3ccccc3)c2Cl)c1NC(=O)NCC(C)(C)C | 0.2 µM | -43% | – | 0.048 µM
38 | CCCCCNC(=O)Nc1c(NS(=O)(=O)C(F)(F)F)cccc1OCCCn1cnc(-c2ccccc2)c1C | > 1 µM | – | – | > 10 µM
39 | CCCCCNC(=O)Nc1c(C)cccc1OCCCn1cnc(-c2ccc(NS(C)(=O)=O)cc2)c1 | > 1 µM | – | – | > 1 µM
40 | CCCCCNC(=O)Nc1ccccc1OCCCn1cnc(-c2ccccc2)c1C | 0.23 µM | – | 3.9% | 0.39 µM
41 | Cc1cccc(OCCCn2cnc(-c3ccccc3)c2Cl)c1NC(=O)NCCC(C)C | 0.14 µM | -59% | – | 0.088 µM
42 | CCc1c(-c2ccccc2)ncn1CCCOc1cccc(C)c1NC(=O)NCC(C)(C)C | 0.46 µM | -55% | – | 0.068 µM

Row | SMILES | IC50 (O-acyltransferase) | Cholesterol reduction (Rattus norvegicus [1]) | Cholesterol reduction (Rattus norvegicus [2]) | IC50 [3]
43 | CCCCCNC(=O)Nc1c(C)cccc1OCCCn1cnc(-c2ccccc2)c1C(N)=O | 0.18 µM | -20% | – | > 1 µM
44 | CCCCCNC(=O)Nc1c(N)cccc1OCCCn1cnc(-c2ccccc2)c1C | 0.1 µM | – | -21% | 0.59 µM
45 | CCCCCNC(=O)Nc1c(C)cccc1OCCCn1cnc(-c2ccccc2[N+](=O)[O-])c1 | 0.21 µM | -46% | -66% | 0.17 µM
46 | CCCCCNC(=O)Nc1c(C)cccc1OCCCn1cnc(-c2ccccc2NS(C)(=O)=O)c1 | 0.45 µM | – | -39% | 0.24 µM
47 | Cc1cccc(OCCCn2cnc(-c3ccccc3)c2C)c1NC(=O)NCC(C)(C)C | 0.21 µM | -64% | – | 0.14 µM
48 | CCCCNC(=O)Nc1c(C)cccc1OCCCn1cnc(-c2ccccc2)c1CO | 0.19 µM | -21% | – | 0.59 µM
49 | CCCCCNC(=O)Nc1c(OCCCn2cnc(-c3ccccc3)c2C)cccc1[N+](=O)[O-] | 0.044 µM | – | -52% | 0.06 µM
50 | CCCCCNC(=O)Nc1c(C)cccc1OCCCn1cnc(-c2ccccc2S(C)(=O)=O)c1 | 0.16 µM | – | -19% | 0.41 µM
51 | CCCCCNC(=O)Nc1c(C)cccc1OCCCn1cnc(-c2cccc(NS(C)(=O)=O)c2)c1 | > 1 µM | – | – | > 1 µM
52 | CCCCCNC(=O)Nc1c(OCCCn2cnc(-c3ccccc3)c2C)cccc1S(C)(=O)=O | 0.14 µM | – | -33% | 0.05 µM
53 | CCCCCNC(=O)Nc1c(C)cccc1OCCCn1cnc(-c2ccccc2)c1CS(C)(=O)=O | 0.41 µM | – | – | > 1 µM
54 | Cc1cccc(OCCCn2cnc(-c3ccccc3)c2CO)c1NC(=O)NCCC(C)C | 0.23 µM | -52% | – | 0.19 µM
55 | CCCCCNC(=O)Nc1c(CN(C)C)cccc1OCCCn1cnc(-c2ccccc2)c1C | 1.3 µM | – | – | 2.6 µM
56 | CCCCCNC(=O)Nc1c(C)cccc1[S+]([O-])CCCn1cnc(-c2ccccc2)c1C (stereo not drawn) | > 1 µM | – | – | > 1 µM
57 | CCc1c(-c2ccccc2)ncn1CCCOc1cccc(C)c1NC(=O)NCCC(C)C | 0.22 µM | -46% | – | 0.072 µM
58 | CCCCCNC(=O)Nc1c(NC)cccc1OCCCn1cnc(-c2ccccc2)c1C | 0.15 µM | – | -35% | 0.6 µM
59 | Cc1cccc(OCCCn2cnc(-c3ccccc3)c2C(C)C)c1NC(=O)NCCC(C)C | 0.28 µM | -40% | – | 0.019 µM
60 | CCCCCNC(=O)Nc1c(C)cccc1CS(=O)(=O)CCn1cnc(-c2ccccc2)c1C | > 1 µM | – | – | 0.09 µM
61 | CCCCNC(=O)Nc1c(C)cccc1OCCCn1cnc(-c2ccccc2)c1Cl | 0.055 µM | -40% | – | 0.21 µM
